We go through 1 compound from US11628164B2, “Composition containing salsolinol for treating liver cancer” (SUNGSHIN WOMEN'S UNIVERSITY R&DB FOUNDATION, priority 2020, dated 2023).

Molecules are shown by their SMILES.

For one data set, the system named is SK-Hep1. Kind of data set: Cell migration assay (culture-insert gap). The class given is cell-based, human. To be noted: 25 μM salsolinol. How it is done: A culture-insert (Ibidi; Martinsried, Germany) is attached to a 24-well plate to make a 500 μm interval, and then the cultured liver cancer cell lines (SK-Hep1) are dispensed so as to have a concentration of 1.5×10^5 cells. And the culturing is performed for 24 hours. After detaching the insert from the plate, each well is treated with the salsolinol so as to have a concentration of 25 μM. After the culturing is performed for 24 hours and for 48 hours, and the sample is photographed by a microscope to check the ability of migrating cells. The SK-Hep1 cells are dispensed into the culture-insert so as to have a concentration of 1.5×10^5 cells, and the culturing is performed for 24 hours. After detaching the insert from the plate, each well is treated with the salsolinol so as to have a concentration of 25 μM. After the culturing is performed for 24 hours and 48 hours, and the sample is photographed by a microscope to check the cell migration ability (refer to FIG. 3). […] When the culturing is performed for 48 hours, a large number of SK-Hep1 cells are migrated, and it is confirmed that the scratch disappears.

In data set [1] the test system is STAT3, pSTAT3, PCNA, 15-PGDH, p53 in SK-Hep1. Kind of data set: Western blotting of tumor-related genes in SK-Hep1. The class given is cell-based, human. How it is done: 5×10^5 cells of Human-derived liver cancer cell lines SK-Hep1 and SNU387 are cultured in a 60 mm culture vessel, the cells are lysed, and proteins are separated through electrophoresis. And after that, western blotting analysis is performed by using a specific antibody. After treatment of the SK-Hep1 and the SNU387 with the salsolinol at different times and concentrations, the cells are washed with PBS, and the cells are scraped off with a scraper. The cells are lysed in a lysis buffer for 1 hour, and after that, centrifuge separation is performed at 13,000 rpm for 15 minutes at 4° C., and only the supernatant is extracted. 20 μg of protein contained in the supernatant is electrophoresed on SDS-polyacrylamide gel, and after that, transferred to a PVDF membrane for 2 hours. The sample reacts with antibodies pSTAT3(#9145), STAT3(#9132), PCNA(#2586), 15-PGDH(cayman No. 160615), p53(sc-126), p53(sc-99), pAKT(#9271), AKT(#9272), Annexin A2(#8235), and GAPDH(sc-32233). The protein is detected by using an enhanced chemiluminascence (ECL) detection solution. As a result of the above-described experiment, it is confirmed that the activity of cells in the liver cancer cell lines SK-Hep1 is decreased by the salsolinol, and particularly, the specificity for the liver cancer cell lines is confirmed. In order to check the correlation between the decrease in the activity of cells of the liver cancer cell lines by the salsolinol and the gene expression, the SK-Hep1 which is a liver cancer cell line and the SNU387 which is a liver cancer cell line are cultured, and the samples are treated with 25 μM of salsolinol d for 72 hours. After the treatment, changes in the expression levels of tumor-related genes such as STAT3, pSTAT3, PCNA, 15-PGDH, and p53 are checked (refer to FIG. 4).

Data set [2] deals with DEN-induced liver cancer mouse model (male). Kind of data set: DEN-induced liver cancer mouse model: liver weight, plasma AFP, tumor number, H&E. The class given is in vivo, C57BL/6 mouse. How it is done:
The mouse used in the experiment are 7-week old male and female C57BL/6 mouse. The mouse is obtained from Orient Bio (ORIENT Bio, Gyeonggi-do Province, Korea) and is adapted in an environment that the contrast is controlled at a temperature of 22±2° C. and a humidity of 55 to 60% in 12-hour increments, and a standard diet is provided for 1 week. All animal experiments are performed in accordance with the regulations of the Laboratory Animal Ethics Committee of Sungshin Women's University. After adapting a male mouse born from the mating of the adapted mouse in the same environment for 2 weeks, a DEN-induced liver cancer mouse model is generated by a method of intraperitoneally administering a liver cancer-causing substance, diethylnitrosamine (DEN, 25 mg/kg). The salsolinol (200 mg/kg) is administered for 6 months through intraperitoneal injection three times per week from the time when the DEN-induced liver cancer mouse model (male) became 7 weeks of age. After the mouse is sacrificed, the experiment is performed. After the experiment is completed, the experimental animals are fasted for 4 hours, sacrificed with CO2 gas, and the blood collected from the heart is heparinized. And after that, centrifuge separation is performed at 3,000 rpm for 15 minutes to separate plasma. AFP (α-Fetoprotein) analysis is measured by enzyme-linked immunosorbent assay (ELISA). The separated plasma is diluted 20 times with a diluted solution, and after that, a 50 μl of standard curve reagent and plasma are inserted into a coated 96-well plate, and after that, the culturing is performed for 2 hours at room temperature. The culture medium is removed, and washing is performed 3 times with 100 μl of wash buffer. After adding 100 μl of prepared AFP conjugate to each well, the culturing is performed for 2 hours at room temperature. The culture medium is removed, and washing is performed 3 times with 100 μl of wash buffer. After adding 100 μl of reaction reagent to each well, the culturing is performed for 30 minutes in a dark place. After adding the same amount of reaction stop reagent to each well, tapping is lightly performed to mix thoroughly. With respect to the degree of reaction, after measuring the absorbance at 450 nm, the concentration of AFP is quantified by using a standard curve of a SpectraMax 190 microplate plate reader (Molecular Devices, LCC. San Jose, Calif.). The liver tissue is separated, the number of tumors is measured, and the degree of tumor formation is illustrated by a picture. After fixing 10% formaldehyde for morphological analysis, a paraffin section slide having a thickness of 4 μm is requested to be manufactured by Notus Co., Ltd. After removing paraffin No. 3 with xylene and re-dehydration in 95% and 70% alcohol, staining is performed by using Mayer's Hematoxylin. A male DEN-induced liver cancer mouse model is prepared by intraperitoneal (IP) administration of DEN 25 mg/kg, and the salsolinol 200 mg/kg is administered intraperitoneally to the model, and an effect of the salsolinol on liver cancer treatment is checked.

[3] abbreviates: SK-Hep1, 25 μM salsolinol, 72 hours.

With `CC1NCCc2cc(O)c(O)cc21` (centres unmarked) [salsolinol, 6,7-dihydroxy-1-methyl-1,2,3,4-tetrahydroisoquinoline], the cell migration ability entry in the data set on SK-Hep1 (24 hours) is on record as “some cells are migrated, but the scratch portion is clearly distinguished”. Besides, the cell migration ability result in the data set with SK-Hep1 (48 hours) was “scratch portion does not disappear”. Further, in data set [1] (setting [3]), the 15-PGDH expression level result is given as “increased”, the PCNA expression level result was “slightly decreased”, the STAT3 expression level result was “remains constant” and the p53 expression level result is “increased”. Further, in data set [1] (setting [3]), the pSTAT3 expression level entry is on record as “decreased”. Further, the “phosphorylation of STAT3 over time” value in data set [1] (male-derived liver cancer cell lines, time course after treatment) is “rapidly increased initially, but it is rapidly decreased after 24 hours”. Further, in data set [2] (DEN+SAL liver tissue), the “abnormal types of hepatocytes (H&E staining)” value is recorded as “not observed”. Besides, in data set [2] (DEN+SAL male mice, salsolinol 200 mg/kg i.p.), the “decrease in number of liver cancer tissues compared with DEN model” value is “about 60%”. Also, the “weight of the liver tissue” value in data set [2] (DEN+SAL male mice, salsolinol 200 mg/kg i.p. three times per week, 6 months) is “slightly equal to that of the normal mouse”. Also, the “average number of liver cancer tissues on the liver surface” value in data set [2] (DEN+SAL male mice, salsolinol 200 mg/kg i.p., DEN model about 10) is recorded as “four”. Also, the “plasma AFP level (average)” value in data set [2] (DEN+SAL male mice, salsolinol 200 mg/kg i.p., normal mouse 50, DEN model 720 ng/ml) came out at 200 ng/mL. In data set [2] (normal mouse administered with salsolinol alone (SAL)), the “liver cancer tissue on the liver surface” value was “no liver cancer tissue is found”.
